Results taken from ChEMBL document CHEMBL1201862, “PubChem BioAssay data set” (2004).
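Method: 48-hour compound exposure of cells in 96-well plates, five concentrations, linear interpolation of endpoints. The concentration for 50% growth inhibition is given as GI50.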 Calls of active or inactive are those of the source. No stated cut-off is given here; in the data, active = GI50 up to about 1.1 µM and inactive = higher.

Key:
Assay in all cases: NCI tumour cell line growth inhibition, 48 h
[1] = tested on: A498
[2] = tested on: EKVX
[3] = tested on: HCT-116
[4] = tested on: HCT-15
[5] = tested on: HOP-92
[6] = tested on: HT-29
[7] = tested on: K562
[8] = tested on: MDA-MB-231
[9] = tested on: NCI-H460
[10] = tested on: OVCAR-5
[11] = tested on: OVCAR-8
[12] = tested on: SF-268
[13] = tested on: SF-539
[14] = tested on: SK-MEL-28
[15] = tested on: SK-MEL-2
[16] = tested on: SK-OV-3
[17] = tested on: SNB-75
[18] = tested on: SR
[19] = tested on: SW-620
[20] = tested on: UO-31

**Q.** `N#Cc1c(/C=C/c2ccccc2)c2c([nH]c1=S)CCCCC2` was tested. Which GI50 [1] did it give?
**A.** > 100 µM (inactive)

**Q.** What about the GI50 [2] of the same molecule?
**A.** > 100 µM (inactive)

**Q.** What about the GI50 [3] of the same molecule?
**A.** > 100 µM (inactive)

**Q.** What about the GI50 [4] of the same molecule?
**A.** > 100 µM

**Q.** What about the GI50 [5] of the same molecule?
**A.** > 100 µM (inactive)

**Q.** What about the GI50 [6] of the same molecule?
**A.** > 100 µM (inactive)

**Q.** What about the GI50 [7] of the same molecule?
**A.** > 100 µM (inactive)

**Q.** And the GI50 [8]?
**A.** > 100 µM (inactive)

**Q.** What about the GI50 [9] of the same molecule?
**A.** 4.9 µM (inactive)

**Q.** What about the GI50 [10] of the same molecule?
**A.** > 100 µM (inactive)

**Q.** What about the GI50 [11] of the same molecule?
**A.** > 100 µM (inactive)

**Q.** And the GI50 [12]?
**A.** > 100 µM (inactive)

**Q.** And the GI50 [13]?
**A.** > 100 µM (inactive)

**Q.** What about the GI50 [14] of the same molecule?
**A.** > 100 µM (inactive)

**Q.** And the GI50 [15]?
**A.** > 100 µM (inactive)

**Q.** What about the GI50 [16] of the same molecule?
**A.** > 100 µM (inactive)

**Q.** What about the GI50 [17] of the same molecule?
**A.** > 100 µM (inactive)

**Q.** What about the GI50 [18] of the same molecule?
**A.** 84.7 µM (inactive)

**Q.** What about the GI50 [19] of the same molecule?
**A.** > 100 µM (inactive)

**Q.** And the GI50 [20]?
**A.** > 100 µM (inactive)

**Q.** Which results are given for `CSC(=S)N(C)C` [CYSTOGON]?
**A.** GI50 [1]: > 100 µM (inactive); GI50 [2]: > 100 µM (inactive); GI50 [3]: > 100 µM (inactive); GI50 [4]: > 100 µM; GI50 [5]: > 100 µM (inactive); GI50 [6]: > 100 µM (inactive); GI50 [7]: > 100 µM (inactive); GI50 [8]: > 100 µM (inactive); GI50 [9]: > 100 µM (inactive); GI50 [10]: > 100 µM (inactive); GI50 [11]: > 100 µM (inactive); GI50 [12]: > 100 µM (inactive); GI50 [13]: > 100 µM (inactive); GI50 [14]: > 100 µM (inactive); GI50 [15]: > 100 µM (inactive); GI50 [16]: > 100 µM (inactive); GI50 [17]: 80 µM (inactive); GI50 [18]: > 100 µM (inactive); GI50 [19]: > 100 µM (inactive); GI50 [20]: > 100 µM (inactive)

**Q.** For `CC[C@H]1CN2CCc3cc(OC)c(OC)cc3[C@@H]2C[C@@H]1C[C@H]1NCCc2c1[nH]c1ccc(O)cc21` [TUBULOSINE], which GI50 [1] is on record?
**A.** 0.0301 µM (active)

**Q.** And the GI50 [2]?
**A.** 0.0294 µM (active)

**Q.** And the GI50 [3]?
**A.** 0.0102 µM (active)

**Q.** What about the GI50 [4] of the same molecule?
**A.** 0.384 µM

**Q.** What about the GI50 [5] of the same molecule?
**A.** 0.0105 µM (active)

**Q.** And the GI50 [6]?
**A.** < 0.01 µM (active)

**Q.** And the GI50 [7]?
**A.** < 0.013 µM (active)

**Q.** What about the GI50 [8] of the same molecule?
**A.** < 0.01 µM (active)

**Q.** What about the GI50 [9] of the same molecule?
**A.** 0.0102 µM (active)

**Q.** What about the GI50 [10] of the same molecule?
**A.** 0.0153 µM (active)

**Q.** What about the GI50 [11] of the same molecule?
**A.** 0.0125 µM (active)

**Q.** And the GI50 [12]?
**A.** < 0.0105 µM (active)

**Q.** And the GI50 [13]?
**A.** 0.0164 µM (active)

**Q.** What about the GI50 [14] of the same molecule?
**A.** 0.0211 µM (active)

**Q.** What about the GI50 [15] of the same molecule?
**A.** 0.0137 µM (active)

**Q.** What about the GI50 [16] of the same molecule?
**A.** 0.0222 µM (active)

**Q.** What about the GI50 [17] of the same molecule?
**A.** < 0.01 µM (active)

**Q.** And the GI50 [18]?
**A.** < 0.215 µM (active)

**Q.** What about the GI50 [19] of the same molecule?
**A.** < 0.0119 µM (active)

**Q.** And the GI50 [20]?
**A.** 0.326 µM (active)
